Among the data in patent US7943606B2, “Compositions and methods to control abnormal cell growth” (CanCure Laboratories, LLC, priority 2005, dated 2011) are inhibition and cytotoxicity values, retold here.

One assay has as its system A-431 cells. As to the kind of experiment: Viability of A-431 epidermoid adenocarcinoma cells (MTT assay). It is filed as cell-based, human. The conditions noted are these: Homo sapiens, A-431; similar comparative study (100 μM, 72 hours); read-out: inhibition of proliferation, A-431. Here is the method:
(§1) To quantify cell death, around the time when significant and characteristic morphological changes took place, cells were pulse-labeled for 10 minutes with [^3H]thymidine to measure DNA activity as described elsewhere [Tomono, M. and Kiss, Z. (1995), “Ethanol enhances the stimulatory effects of insulin and insulin-like growth factor-I on DNA synthesis in NIH 3T3 fibroblasts,” Biochem. Biophys. Res. Commun. 208, 63-67]. Also, cells were collected as suspensions using trypsin, an established method in cell biology, followed by re-plating of cells in fresh tissue culture medium. If no viable cells were obtained after one week in culture, it meant that the cells at the time of re-plating were dead. Survival values obtained with untreated cells were considered 100%. For the determination of relative number of viable cells after treatments, in most cases the MTT assay was used. This calorimetric assay is based on the ability of living cells, but not dead cells, to reduce 3-(4,5-dimethyl thiazol-2-yl)-2,5-diphenyltetrazolium bromide [Carmichael, J, De Graff, W. G., Gazdar, A. F., Minna, J. D. and Mitchell, J. B. (1987), “Evaluation of tetrazolium-based semi-automated calorimetric assay: Assessment of chemosensitivity testing,” Cancer Res. 47, 936-942]. For this assay, cells were plated in 96-well plates, and the MTT assay was performed both in untreated and treated cell cultures. The MTT assay also was performed at the start of treatments to allow assessment of proliferation rates in the control and treated cell cultures.
(§2) The NIH 3T3 (normal) mouse fibroblast, A431 human epidermoid adenocarcinoma, and MCF-7 human breast cancer cells were cultured in DMEM medium containing 10% FBS. The MEL-28 human melanoma cells were cultured in MEM medium containing 10% FBS. The HT-29 human colon adenocarcinoma cells were cultured in McCoy's 5a medium containing 10% FBS. The A549 human lung carcinoma cells were maintained in Ham's F12K medium containing 10% FBS. Cells were seeded into 96-well plates and treated at ˜70-90% confluency. Two hours before treatments the medium was changed for fresh 10% serum medium, and then the cells were incubated for 72 hours in the presence of 0-200 μM of CCompound1 (●) or CCompound3 (CCDTHT) (▴), as indicated. The MTT assay was used to determine cell viability after treatments. The values, shown in FIGS. 5A-5F and expressed as percent decrease in viability compared to the untreated control cells, are the mean±std. dev. of 8 incubations in one experiment. Similar results were obtained in another experiment.
(§3) NIH3T3, T47D, A-431, HT-29, and MEL-28 cells were cultured as indicated earlier. CaOV-3 human ovarian cancer cells were cultured in DMEM containing 10% FBS. ZR-75-1 human estrogen receptor-positive breast cancer cells were maintained in RPMI 1640 medium supplemented with 10% FBS. HTB-157 human fetal fibroblasts, MEL-24 human malignant melanoma cells, Hep G2 human hepatoblastoma cells, and CaCO-2 human colon adenocarcinoma cells were maintained in Eagles's MEM containing 10% FBS. MB-231 human estrogen receptor-negative breast cancer cells were maintained in Leibovitz's L-15 medium supplemented with 10% FBS. Cells were seeded into 96-well plates and treated at ˜70-90% confluency. Two hours prior to treatments the medium was changed for fresh 10% serum medium, and then the cells were incubated for 10 days in the absence (□) or presence of 50 μM CCDTHT ? or 100 μM CCDTHT (▪). The medium was changed and the cells were re-treated on days 3 and 6. The MTT assay was used to determine cell viability on day 10. The data, shown in FIG. 6, are the mean±std. dev. of 8 incubations in one experiment. (The experiment was repeated twice with similar results).
(§4) NIH 3T3, MEL-28, MEL-24, CaOV-3, ZR-75-1, and T47D cells were cultured as described above. The OVCAR human ovarian cancer cells were cultured in DMEM containing 10% FBS. Cells were seeded into 96-well plates and used at ˜60-80% confluency. […]
On the technique in general: Formazan colour is commonly taken as a measure of viable cells.

The next assay deals with MEL-24 cells. As to the kind of experiment: Viability of MEL-24 melanoma cells (MTT assay). It counts as cell-based. Particulars: Homo sapiens, 72 hours, read-out: Decrease in cell number (maximal decrease = 100%), MEL-24. Here is the method: as §1, §3
(§5) NIH 3T3, MEL-28, MEL-24, CaOV-3, ZR-75-1, and T47D cells were cultured as described above. The OVCAR human ovarian cancer cells were cultured in DMEM containing 10% FBS. Cells were seeded into 96-well plates and used at ˜60-80% confluency. Two hours before treatments the medium was changed for fresh 10% serum medium, and then the cells were incubated for 72 hours in the absence or presence of 100 μM of each of CC compounds as listed in TABLE 3. The inhibitory effects of CC compounds on cell proliferation are expressed as percent decrease compared to untreated cell cultures (the greater the number, the greater the inhibitory effect of the CC compound). […] Also, for the treatment of ovarian cancer and breast cancer, CCDTHT seems to be the best choice (although in this experiment CCompounds21-26 were not tested).

The test system of another assay is ZR-75-1 cells. As to the kind of experiment: Viability of ZR-75-1 breast cancer cells (MTT assay). It is filed as cell-based, human. The conditions noted are these: Homo sapiens, ZR-75-1; 100 μM, 72 hours; read-out: Decrease in cell number (maximal decrease = 100%), ZR-75-1. Here is the method: as §1, §3, §5
A further assay deals with CaOV-3 cells. The experiment in a line: Viability of CaOV-3 ovarian cancer cells (MTT assay). It counts as cell-based, human. The conditions noted are these: Homo sapiens, Caov-3; 100 μM, 72 hours; read-out: Decrease in cell number (maximal decrease = 100%), CaOV-3. Here is the method:
as §1, §3
The MRC-5 cell line is derived from normal lung tissue of a […] fetus. MRC-5 cells were maintained and treated in Eagles Medium with Hanks' BSS containing 10% fetal bovine serum. The T47D cells were maintained and treated in RPMI 1640 medium supplemented with 0.2 IU bovine insulin and 10% fetal bovine serum. The CaOV-3 human ovarian cancer cells were cultured in Dulbecco's modified Eagle's medium containing 10% fetal bovine serum. The cells were seeded in 96-well plates either at 10,000 cells per well or 30,000 cells per well to examine the antiproliferative and cytotoxic effects of various CC compounds, respectively. The cells were incubated for 24 hours, then the medium was changed followed by the treatments of cultures 2 hours after the medium change. At this point, cell cultures seeded at 10,000 cells per well and 30,000 cells per well were 25-35% and 80-90% confluent, respectively. Incubations were continued for 72 hours followed by the MTT assay. The data, shown in TABLE 2, indicate the inhibitory concentrations of CC compounds (IC50) required for 50% decrease in the number of viable cells. These numbers are calculated from the mean of 4 incubations in one experiment (the experiment was repeated once with similar results). […]

The next assay concerns NIH 3T3 cells. As to the kind of experiment: Viability of NIH 3T3 normal fibroblasts (MTT assay). It counts as cell-based. The conditions noted are these: Mus musculus, NIH3T3; 100 μM, 72 hours; read-out: Decrease in cell number (maximal decrease = 100%), NIH 3T3. Here is the method:
as §1, §2, §3, §4

A further assay concerns MB-231 cells. As to the kind of experiment: Viability of MB-231 breast cancer cells (MTT assay). It is filed as cell-based, human. The conditions noted are these: Homo sapiens; similar comparative study (100 μM, 72 hours); read-out: inhibition of proliferation, MB-231. Here is the method:
To quantify cell death, around the time when significant and characteristic morphological changes took place, cells were pulse-labeled for 10 minutes with [^3H]thymidine to measure DNA activity as described elsewhere [Tomono, M. and Kiss, Z. (1995), “Ethanol enhances the stimulatory effects of insulin and insulin-like growth factor-I on DNA synthesis in NIH 3T3 fibroblasts,” Biochem. Biophys. Res. Commun. 208, 63-67]. Also, cells were collected as suspensions using trypsin, an established method in cell biology, followed by re-plating of cells in fresh tissue culture medium. If no viable cells were obtained after one week in culture, it meant that the cells at the time of re-plating were dead. Survival values obtained with untreated cells were considered 100%. For the determination of relative number of viable cells after treatments, in most cases the MTT assay was used. […]
(§6) NIH 3T3, MEL-28, MEL-24, CaOV-3, ZR-75-1, and T47D cells were cultured as described above. […] The inhibitory effects of CC compounds on cell proliferation are expressed as percent decrease compared to untreated cell cultures (the greater the number, the greater the inhibitory effect of the CC compound). […]

For another assay, the system named is HT-29 cells. As to the kind of experiment: Viability of HT-29 colon adenocarcinoma cells (MTT assay). It is filed as cell-based, human. Particulars: Homo sapiens, HT-29; similar comparative study (100 μM, 72 hours); read-out: inhibition of proliferation, HT-29. Here is the method:
as §1, §2
as §3, with “The MTT assay was used to determine cell viability on day 10. The data, shown in FIG. 6, are the mean±std. dev. of 8 incubations in one experiment. (The experiment was repeated twice with similar results).” left out

A further assay has as its system PC-3 cells. The experiment in a line: Proliferation of PC-3 prostate cancer cells. It counts as cell-based. The conditions noted are these: Homo sapiens, similar comparative study (100 μM, 72 hours).
The next assay concerns A549 cells. The experiment in a line: Viability of A549 lung carcinoma cells (MTT assay). It is filed as cell-based, human. The conditions noted are these: Homo sapiens, A549; similar comparative study (100 μM, 72 hours); read-out: inhibition of proliferation, A549. Here is the method:
To quantify cell death, around the time when significant and characteristic morphological changes took place, cells were pulse-labeled for 10 minutes with [^3H]thymidine to measure DNA activity as described elsewhere [Tomono, M. and Kiss, Z. (1995), “Ethanol enhances the stimulatory effects of insulin and insulin-like growth factor-I on DNA synthesis in NIH 3T3 fibroblasts,” Biochem. Biophys. Res. Commun. 208, 63-67]. Also, cells were collected as suspensions using trypsin, an established method in cell biology, followed by re-plating of cells in fresh tissue culture medium. If no viable cells were obtained after one week in culture, it meant that the cells at the time of re-plating were dead. […]
The NIH 3T3 (normal) mouse fibroblast, A431 human epidermoid adenocarcinoma, and MCF-7 human breast cancer cells were cultured in DMEM medium containing 10% FBS. […] The values, shown in FIGS. 5A-5F and expressed as percent decrease in viability compared to the untreated control cells, are the mean±std. dev. of 8 incubations in one experiment. […]
as §6

Where a name gives a salt, the structure may show the parent alone.

Turning to `CC[N+](CC)(CC)CCCOCc1ccc2sc3ccccc3c(=O)c2c1` [CCcompound9, N,N,N-Triethyl-3-[(9-oxo-9H-thioxanthen-2-yl)methoxy]-propane-1-aminium iodide], the inhibition at 100 µM with A-431 cells is 68 to 74%; with MEL-24 cells it was 4%; in the assay on ZR-75-1 cells, 70%; in the assay on CaOV-3 cells, 45%. The cytotoxicity at 100 µM with NIH 3T3 cells is 22%.
Consider `CC[N+](C)(CC)CCCOCc1ccc2sc3ccccc3c(=O)c2c1` [CCcompound10, N,N-Diethyl-N-methyl-3-[(9-oxo-9H-thioxanthen-2-yl)methoxy]-propane-1-aminium iodide], for which the values for the inhibition at 100 µM in the assay with MEL-24 cells, in the assay with ZR-75-1 cells and in the assay with CaOV-3 cells were 15%, 65% and 45%, respectively. In addition, in the assay with NIH 3T3 cells, the cytotoxicity at 100 µM was found to be 21%.
Turning to `CC[N+](C)(C)CCCOCc1ccc2sc3ccccc3c(=O)c2c1` [CCcompound11, N,N-Dimethyl-N-ethyl-3-[(9-oxo-9H-thioxanthen-2-yl)methoxy]-propane-1-aminium iodide], the inhibition at 100 µM in the assay with MB-231 cells was 75%; in the assay on HT-29 cells it was 63 to 71%; with MEL-24 cells it was 20%; with PC-3 cells, 54 to 55%; in the assay on ZR-75-1 cells, 75%; in the assay with CaOV-3 cells, 66%. For the same compound, the inhibition at 100 µM in the assay with A549 cells amounted to 68%. Besides, the cytotoxicity at 100 µM in the assay with NIH 3T3 cells was found to be 21%.
For the compound `CC[NH+](CC)CCCOCc1ccc2sc3ccccc3c(=O)c2c1` [CCcompound12, 2-{[3-(Diethylamino)propoxy]meth-yl}-9H-thioxanthen-9-one hydrochloride], the inhibition at 100 µM was 68 to 74% with A-431 cells, 73% in the assay with MEL-24 cells, 17% in the assay on ZR-75-1 cells and 80% in the assay with CaOV-3 cells. In the assay with NIH 3T3 cells, the cytotoxicity at 100 µM is 0%.
`C[N+](C)(CCO)Cc1ccc2sc3ccccc3c(=O)c2c1` [CCcompound13, 2-Hydroxy-N,N-dimethyl-N-[(9-oxo-9H-thioxanthen-2-yl)methyl]-ethanaminium bromide]: the inhibition at 100 µM with MEL-24 cells came out at 12%; in the assay with ZR-75-1 cells it was 48%; with CaOV-3 cells it was 53%. Besides, in the assay on NIH 3T3 cells, the cytotoxicity at 100 µM is 25%.
Consider `CC[N+](CC)(CCO)Cc1ccc2sc3ccccc3c(=O)c2c1` [CCcompound14, 2-Hydroxy-N,N-Diethyl-N-[(9-oxo-9H-thioxanthen-2-yl)methyl]-ethanaminium bromide], for which the inhibition at 100 µM with HT-29 cells was 63 to 71%; with MEL-24 cells, 21%; with ZR-75-1 cells, 53%; in the assay on CaOV-3 cells, 69%. For the same compound, in the assay with NIH 3T3 cells, the cytotoxicity at 100 µM was 30%.
On to `C[N+](C)(CCCO)Cc1ccc2sc3ccccc3c(=O)c2c1` [CCcompound15, 3-Hydroxy-N,N-dimethyl-N-[(9-oxo-9H-thioxanthen-2-yl)methyl]propane-1-aminium bromide], for which the inhibition at 100 µM in the assay on MEL-24 cells is 0%; with ZR-75-1 cells, 41%; in the assay with CaOV-3 cells it was 28%. Besides, in the assay on NIH 3T3 cells, the cytotoxicity at 100 µM was determined as 11%.
Take `CC[N+](CC)(CCCO)Cc1ccc2sc3ccccc3c(=O)c2c1` [CCcompound16, 3-Hydroxy-N,N-diethyl-N-[(9-oxo-9H-thioxanthen-2-yl)methyl]-propane-1-aminium bromide]: the inhibition at 100 µM came to 0% in the assay with MEL-24 cells, 39% in the assay with ZR-75-1 cells and 12% in the assay on CaOV-3 cells. Moreover, the cytotoxicity at 100 µM in the assay on NIH 3T3 cells is 19%.
